Literature values, collected in patent US20240105341A1, “SYSTEMS AND METHODS FOR ESTIMATING TUMOR GROWTH” (AMGEN INC., priority 2022, published 2024).
Read-outs that look alike come from different tables or passages of the source.

Tests used:
[1] = test system: metastatic, castration-resistant prostate cancer (mCRPC); settings: FIRSTANA 2017, phase 3, chemo-naive
[2] = test system: metastatic, castration-resistant prostate cancer (mCRPC); settings: PREVAIL 2014, phase 3, chemo-naive

CO[C@H]1C(=O)[C@]2(C)[C@@H](OC)C[C@H]3OC[C@@]3(OC(C)=O)[C@H]2[C@H](OC(=O)c2ccccc2)[C@]2(O)C[C@H](OC(=O)[C@H](O)[C@@H](NC(=O)OC(C)(C)C)c3ccccc3)C(C)=C1C2(C)C [Caba20]
CR (number of complete responders) [1]: 1 | Median PFS [1]: 4.4 | PR + CR (number of responders) [1]: 61

CNC(=O)c1ccc(N2C(=S)N(c3ccc(C#N)c(C(F)(F)F)c3)C(=O)C2(C)C)cc1F [Enza]
CR (number of complete responders) [2]: 78 | PR + CR (number of responders) [2]: 233

CC(=O)O[C@@]12CO[C@@H]1C[C@H](O)[C@@]1(C)C(=O)[C@H](O)C3=C(C)[C@@H](OC(=O)[C@H](O)[C@@H](NC(=O)OC(C)(C)C)c4ccccc4)C[C@@](O)([C@@H](OC(=O)c4ccccc4)[C@H]21)C3(C)C [Doce75]
CR (number of complete responders) [1]: 1 | Median PFS [1]: 5.3 | PR + CR (number of responders) [1]: 54
